Experimental data: ChEMBL document CHEMBL4024707, “Using gene expression database to uncover biology functions of 1,4-disubstituted 1,2,3-triazole analogues synthesized via a copper (I)-catalyzed reaction” (Eur J Med Chem, 2017)
The source made the active and inactive calls. The calls are words filed in the database; no cut-off is given here.

What was measured:
Hep 3B2 [1] = experiment: Cell cycle arrest in human Hep3B cells assessed as accumulation at G0/G1 phase at 10 uM after 72 hrs by propidium iodide staining based flow cytometry (reference value: 41.6 to 46.2%); format: functional
Hep 3B2 [2] = experiment: Cell cycle arrest in human Hep3B cells assessed as accumulation at G0/G1 phase at 2.5 uM after 72 hrs by propidium iodide staining based flow cytometry (reference value: 41.6 to 46.2%); format: functional
Hep 3B2 [3] = experiment: Cell cycle arrest in human Hep3B cells assessed as accumulation at G0/G1 phase at 5 uM after 24 hrs by propidium iodide staining based flow cytometry (reference value: 36.3 to 39.0%); format: functional
Hep 3B2 [4] = experiment: Induction of autophagy in human Hep3B cells at 40 uM after 48 hrs by acridine orange staining based flow cytometry (reference value: 0.9 to 3%); format: functional
Hep 3B2 [5] = experiment: Growth inhibition of human Hep3B cells at 10 uM up to 72 hrs by MTT assay; format: functional, cell-based
Hep 3B2 [6] = experiment: Cell cycle arrest in human Hep3B cells assessed as accumulation at G2/M phase at 40 uM after 24 hrs by propidium iodide staining based flow cytometry (reference value: 31.8 to […]%); format: functional
Hep 3B2 [7] = experiment: Cell cycle arrest in human Hep3B cells assessed as accumulation at G0/G1 phase at 2.5 uM after 24 hrs by propidium iodide staining based flow cytometry (reference value: 36.3 to 39.0%); format: functional
Hep 3B2 [8] = experiment: Cell cycle arrest in human Hep3B cells assessed as accumulation at G0/G1 phase at 10 uM after 48 hrs by propidium iodide staining based flow cytometry (reference value: 39.7 to 40.4%); format: functional
Hep 3B2 [9] = experiment: Cell cycle arrest in human Hep3B cells assessed as accumulation at G0/G1 phase at 40 uM after 48 hrs by propidium iodide staining based flow cytometry (reference value: 39.7 to 40.4%); format: functional
Hep 3B2 [10] = experiment: Cell cycle arrest in human Hep3B cells assessed as accumulation at S phase at 40 uM after 72 hrs by propidium iodide staining based flow cytometry (reference value: 16.4 to 21.1%); format: functional
Hep 3B2 [11] = experiment: Induction of autophagy in human Hep3B cells at 40 uM after 72 hrs by acridine orange staining based flow cytometry (reference value: 1.1 to 4%); format: functional
Hep 3B2 [12] = experiment: Cell cycle arrest in human Hep3B cells assessed as accumulation at S phase at 2.5 uM after 48 hrs by propidium iodide staining based flow cytometry (reference value: 20.8 to 24%); format: functional
Hep 3B2 [13] = experiment: Cell cycle arrest in human Hep3B cells assessed as accumulation at sub-G1 phase at 40 uM after 72 hrs by propidium iodide staining based flow cytometry (reference value: 0.6 to 3.3%); format: functional
Hep 3B2 [14] = experiment: Cell cycle arrest in human Hep3B cells assessed as accumulation at sub-G1 phase at 40 uM after 48 hrs by propidium iodide staining based flow cytometry (reference value: 1.5 to 6.5%); format: functional
Hep 3B2 [15] = experiment: Cell cycle arrest in human Hep3B cells assessed as accumulation at G2/M phase at 10 uM after 48 hrs in presence of curcumin by propidium iodide staining based flow cytometry (reference value: 36.6 +/- 2.9%); format: functional
Hep 3B2 [16] = experiment: Down regulation of RTN2 expression in human Hep3B cells at 1 uM after 6 to 24 hrs by L1000 expression profiling method relative to control; format: functional
Hep 3B2 [17] = experiment: Down regulation of DNMT3A expression in human Hep3B cells at 1 uM after 6 to 24 hrs by L1000 expression profiling method relative to control; format: functional
Hep 3B2 [18] = experiment: Down regulation of EXT1 expression in human Hep3B cells at 1 uM after 6 to 24 hrs by L1000 expression profiling method relative to control; format: functional
Hep 3B2 [19] = experiment: Down regulation of PAPD7 expression in human Hep3B cells at 1 uM after 6 to 24 hrs by L1000 expression profiling method relative to control; format: functional
[20] = target: Glycogen synthase kinase-3 beta (Homo sapiens) (UniProt P49841); experiment: Inhibition of GSK3beta phosphorylation at Ser9 in human Hep3B cells assessed as ratio of phosphorylated GSK3beta to beta-actin level at 10 uM after 48 hrs by Western blot analysis; format: cell-based
Chain of Glycogen synthase kinase-3 beta (Homo sapiens) (P49841 whole entry, looked up): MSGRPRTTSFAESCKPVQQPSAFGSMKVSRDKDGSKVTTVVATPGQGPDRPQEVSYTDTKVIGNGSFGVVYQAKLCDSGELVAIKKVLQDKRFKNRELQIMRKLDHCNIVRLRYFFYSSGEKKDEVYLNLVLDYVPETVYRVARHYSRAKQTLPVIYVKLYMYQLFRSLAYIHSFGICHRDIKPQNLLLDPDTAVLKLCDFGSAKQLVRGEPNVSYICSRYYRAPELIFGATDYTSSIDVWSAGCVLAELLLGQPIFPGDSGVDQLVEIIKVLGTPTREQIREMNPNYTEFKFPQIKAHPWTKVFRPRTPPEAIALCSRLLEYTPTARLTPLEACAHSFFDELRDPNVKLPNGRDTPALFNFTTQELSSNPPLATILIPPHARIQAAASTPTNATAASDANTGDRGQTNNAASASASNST

Hep 3B2 [21] = experiment: Down regulation of CHAC1 expression in human Hep3B cells at 1 uM after 6 to 24 hrs by L1000 expression profiling method relative to control; format: functional
Hep 3B2 [22] = experiment: Induction of autophagy in human Hep3B cells after 48 to 72 hrs by acridine orange staining based flow cytometry; format: functional, cell-based
Hep 3B2 [23] = experiment: Up regulation of OXA1L expression in human Hep3B cells at 1 uM after 6 to 24 hrs by L1000 expression profiling method relative to control; format: functional
HT-29 = experiment: Cytotoxicity against human HT-29 cells after 6 days by MTT assay; format: functional, cell-based; conditions: HT-29, 144 h
Hep 3B2 [24] = experiment: Cell cycle arrest in human Hep3B cells assessed as accumulation at S phase at 10 uM after 48 hrs in absence of curcumin by propidium iodide staining based flow cytometry (reference value: 23.8 +/- 1.9%); format: functional
Hep 3B2 [25] = experiment: Down regulation of ARL4C expression in human Hep3B cells at 1 uM after 6 to 24 hrs by L1000 expression profiling method relative to control; format: functional
Hep 3B2 [26] = experiment: Growth inhibition of human Hep3B cells at 2.5 uM after 48 hrs in presence of curcumin by MTT assay; format: functional
Hep 3B2 [27] = experiment: Down regulation of MMP2 expression in human Hep3B cells at 1 uM after 6 to 24 hrs by L1000 expression profiling method relative to control; format: functional
Hep 3B2 [28] = experiment: Down regulation of HTRA1 expression in human Hep3B cells at 1 uM after 6 to 24 hrs by L1000 expression profiling method relative to control; format: functional
Hep 3B2 [29] = experiment: Down regulation of NVL expression in human Hep3B cells at 1 uM after 6 to 24 hrs by L1000 expression profiling method relative to control; format: functional
Hep 3B2 [30] = experiment: Induction of apoptosis in human Hep3B cells assessed as ratio of cleaved caspase-3 to beta actin level at 10 uM after 48 hrs in absence of curcumin by Western blot analysis; format: functional
Hep 3B2 [31] = experiment: Down regulation of CD40 expression in human Hep3B cells at 1 uM after 6 to 24 hrs by L1000 expression profiling method relative to control; format: functional
Hep 3B2 [32] = experiment: Cell cycle arrest in human Hep3B cells assessed as accumulation at sub-G1 phase at 10 uM after 48 hrs in presence of curcumin by propidium iodide staining based flow cytometry (reference value: 3.7 +/- 0.4%); format: functional
Hep 3B2 [33] = experiment: Up regulation of CDCA4 expression in human Hep3B cells at 1 uM after 6 to 24 hrs by L1000 expression profiling method relative to control; format: functional
Hep 3B2 [34] = experiment: Up regulation of ARFIP2 expression in human Hep3B cells at 1 uM after 6 to 24 hrs by L1000 expression profiling method relative to control; format: functional
Hep 3B2 [35] = experiment: Down regulation of IL1B expression in human Hep3B cells at 1 uM after 6 to 24 hrs by L1000 expression profiling method relative to control; format: functional

Question: What does the source list for `COc1ccc(CNC(=O)Nc2ncc([N+](=O)[O-])s2)cc1`?
Answer: Activity (Hep 3B2 [1]): 43.3%; Activity (Hep 3B2 [2]): 42.3%; Activity (Hep 3B2 [3]): 32.5%; Activity (Hep 3B2 [4]): 7.7%; growth inhibition (GI) (Hep 3B2 [5]): Active; Activity (Hep 3B2 [6]): 37.6%; Activity (Hep 3B2 [7]): 36.8%; Activity (Hep 3B2 [8]): 39.4%; Activity (Hep 3B2 [9]): 34.7%; Activity (Hep 3B2 [10]): 13.5%; Activity (Hep 3B2 [11]): 23.3%; Activity (Hep 3B2 [12]): 23.2%; Activity (Hep 3B2 [13]): 5.4%; Activity (Hep 3B2 [14]): 8.9%

Question: `O=C1COc2ccccc2N1Cc1cn(CCC2OCCO2)nn1` was tested. Which Activity (Hep 3B2 [15]) did it give?
Answer: The Activity was 44.8%.

Question: What about the log2FC (Hep 3B2 [16]) of the same compound?
Answer: The log2FC was -4.1606.

Question: And the log2FC (Hep 3B2 [17])?
Answer: The log2FC was -4.2565.

Question: What about the log2FC (Hep 3B2 [18]) of the same compound?
Answer: The log2FC was -4.2621.

Question: And the log2FC (Hep 3B2 [19])?
Answer: The log2FC was -3.2796.

Question: And the Ratio [20]?
Answer: The Ratio was 0.7.

Question: What about the log2FC (Hep 3B2 [21]) of the same compound?
Answer: The log2FC was -4.0849.

Question: And the Activity (Hep 3B2 [22])?
Answer: Its Activity is “Dose-dependent effect”.

Question: What about the log2FC (Hep 3B2 [23]) of the same compound?
Answer: The log2FC was 3.2193.

Question: What about the IC50 (HT-29) of the same compound?
Answer: The IC50 was 5.7 µM.

Question: And the Activity (Hep 3B2 [24])?
Answer: Its Activity is 13.9%.

Question: What about the log2FC (Hep 3B2 [25]) of the same compound?
Answer: The log2FC was -3.744.

Question: And the CI (Hep 3B2 [26])?
Answer: The CI was 0.96.

Question: What about the log2FC (Hep 3B2 [27]) of the same compound?
Answer: The log2FC was -4.0779.

Question: What about the log2FC (Hep 3B2 [28]) of the same compound?
Answer: Its log2FC is -3.2036.

Question: And the log2FC (Hep 3B2 [29])?
Answer: Its log2FC is -3.779.

Question: And the Ratio (Hep 3B2 [30])?
Answer: Its Ratio is 2.8.

Question: What about the log2FC (Hep 3B2 [31]) of the same compound?
Answer: Its log2FC is -3.3087.

Question: What about the Activity (Hep 3B2 [32]) of the same compound?
Answer: Its Activity is 21.6%.

Question: What about the log2FC (Hep 3B2 [33]) of the same compound?
Answer: Its log2FC is 3.2705.

Question: And the log2FC (Hep 3B2 [34])?
Answer: Its log2FC is 3.4502.

Question: And the log2FC (Hep 3B2 [35])?
Answer: The log2FC was -3.3463.
